# From US8232288B2, “Substituted benzimidazoles, benzothiazoles and benzoxazoles” (Gruenenthal GmbH, priority 2009, dated 2012)
# Key:
# [1] = target: T1, human B1R receptor (hB1R) (Homo sapiens, UniProt P46663); assay: Functional investigation on the bradykinin receptor 1 (B1R), FLIPR Ca2+ assay, hB1R cells; type: cell-based
# T1 construct: expressed in transfected cells; host or cells: CHO K1 cells
# T1 sequence (P46663 1-353): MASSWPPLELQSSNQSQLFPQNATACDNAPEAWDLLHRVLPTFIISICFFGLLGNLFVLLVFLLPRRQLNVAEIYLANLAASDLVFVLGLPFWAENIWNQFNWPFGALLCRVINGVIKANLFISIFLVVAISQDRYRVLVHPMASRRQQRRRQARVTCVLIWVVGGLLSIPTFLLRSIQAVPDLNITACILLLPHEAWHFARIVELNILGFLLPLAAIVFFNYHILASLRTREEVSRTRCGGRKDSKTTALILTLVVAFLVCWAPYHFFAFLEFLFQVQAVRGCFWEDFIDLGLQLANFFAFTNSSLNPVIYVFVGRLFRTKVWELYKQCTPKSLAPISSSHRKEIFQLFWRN
# Experimental: (§1) The agonistic or antagonistic action of substances can be quantified on the bradykinin receptor 1 (B1R) of the human and rat species with ectopically expressing cell lines (CHO K1 cells) and with the aid of a Ca^2+-sensitive dyestuff (Fluo-4) in a fluorescent imaging plate reader (FLIPR). The figure in % activation is based on the Ca^2+ signal after addition of Lys-Des-Arg^9-bradykinin (0.5 nM) or Des-Arg^9-bradykinin (100 nM). Antagonists lead to a suppression of the Ca^2+ inflow after addition of the agonist. % inhibition compared with the maximum achievable inhibition is stated.
# (§2) The agonistic or antagonistic action of substances can be determined on the bradykinin receptor 1 (B1R) of the human and rat species with the following assay. In accordance with this assay, the Ca^2+ inflow through the channel is quantified with the aid of a Ca^2+-sensitive dyestuff (type Fluo-4, Molecular Probes Europe BV, Leiden Holland) in a fluorescent imaging plate reader (FLIPR, Molecular Devices, Sunnyvale, USA).
# (§3) Chinese hamster ovary cells (CHO K1 cells) transfected stably with the human B1R gene (hB1R cells) or the B1R gene of the rat (rB1R cells) are used. For functional studies, these cells are plated out on black 96-well plates with a clear base (BD Biosciences, Heidelberg, Germany or Greiner, Frickenhausen, Germany) in a density of 20,000-35,000 cells/well. The cells are left overnight at 37° C. and 5% CO2 in culture medium (hB1R cells: Nutrient Mixture Ham's F12, Gibco Invitrogen GmbH, Karlsruhe, Germany or DMEM, Sigma-Aldrich, Taufkirchen, Germany; rB1R cells: D-MEM/F12, Gibco Invitrogen GmbH, Karlsruhe, Germany) with 10 vol. % FBS (foetal bovine serum, Gibco Invitrogen GmbH, Karlsruhe, Germany or PAN Biotech GmbH, Aidenbach, Germany). On the following day, the cells are loaded for 60 min at 37° C. with 2.13 μM Fluo-4 (Molecular Probes Europe BV, Leiden Holland) in HBSS buffer (Hank's buffered saline solution, Gibco Invitrogen GmbH, Karlsruhe, Germany) with 2.5 mM probenecid (Sigma-Aldrich, Taufkirchen, Germany) and 10 mM HEPES (Sigma-Aldrich, Taufkirchen, Germany). The plates are then washed 2× with HBSS buffer, and HBSS buffer which additionally contains 0.1% BSA (bovine serum albumin; Sigma-Aldrich, Taufkirchen, Germany), 5.6 mM glucose and 0.05% gelatine (Merck KGaA, Darmstadt, Germany) is added. After a further incubation of 20 minutes at room temperature, the plates are inserted into the FLIPR for the Ca^2+ measurement.
# (§4) Alternatively, the plates are washed with buffer A (15 mM HEPES, 80 mM NaCl, 5 mM KCl, 1.2 mM CaCl2, 0.7 mM MgSO4, 2 g/l glucose, 2.5 mM probenecid), buffer A is added and the plates are loaded with 2.5 μM Fluo-4 and 0.025% Pluronic F127 (Sigma-Aldrich, Taufkirchen, Germany). Thereafter, the cells are washed 2× with buffer A and incubated for 30 minutes at room temperature with buffer A, which additionally contains 0.05% BSA and 0.05% gelatine, and thereafter inserted into the FLIPR for the Ca^2+ measurement.
# (§5) The Ca^2+-dependent fluorescence is measured here before and after addition of substances (λex=488 nm, λem=540 nm). Quantification is by measurement of the highest fluorescence intensity (FC, fluorescence counts) over time.
# (§6) The FLIPR protocol consists of 2 additions of substance. Test substances (10 μM) are first pipetted on to the cells and the Ca^2+ inflow is compared with the control (hB1R: Lys-Des-Arg^9-bradykinin>=50 nM; rB1R: Des-Arg^9-bradykinin 10 μM). This gives the result in % activation based on the Ca^2+ signal after addition of Lys-Des-Arg^9-bradykinin (>=50 nM) or Des-Arg^9-bradykinin (10 μM). After incubation for 10-20 minutes, Lys-Des-Arg^9-bradykinin (hB1R) or Des-Arg^9-bradykinin (rB1R) in the concentration of the EC80 is applied and the inflow of Ca^2+ is likewise determined. Antagonists lead to a suppression of the Ca^2+ inflow. % inhibition compared with the maximum achievable inhibition is calculated.
# (§7) In order to determine the IC50 value, the substances are added in various concentrations. […]
# [2] = target: T2, B1R receptor of the rat (rB1R) (Rattus norvegicus, UniProt P97583); assay: Functional investigation on the bradykinin receptor 1 (B1R), FLIPR Ca2+ assay, rB1R cells; type: cell-based
# T2 construct: expressed in transfected cells; host or cells: CHO K1 cells
# T2 sequence (P97583 1-337): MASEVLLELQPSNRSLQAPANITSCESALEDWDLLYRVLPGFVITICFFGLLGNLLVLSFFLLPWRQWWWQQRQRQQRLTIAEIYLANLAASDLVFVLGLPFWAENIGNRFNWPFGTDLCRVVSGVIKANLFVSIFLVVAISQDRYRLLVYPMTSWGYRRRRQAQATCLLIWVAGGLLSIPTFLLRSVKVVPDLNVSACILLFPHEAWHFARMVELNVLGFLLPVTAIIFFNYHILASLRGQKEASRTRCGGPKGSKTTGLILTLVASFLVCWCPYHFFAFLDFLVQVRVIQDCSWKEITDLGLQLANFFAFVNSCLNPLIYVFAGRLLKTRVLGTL
# Experimental: as §1, §2, §3, §4, §5, §6, §7
Compound,inhibition at 10 µM [1],inhibition at 10 µM [2]
"CN(Cc1nc2cccc(C(=O)N3CCC4(CC3)CCN(c3ccncc3)C4)c2[nH]1)C(=O)c1ccccc1Cl [I_CC-08, 2-chloro-N-methyl-N-[[7-(3-pyridin-4-yl-3,8-diazaspiro[4.5]decane-8-carbonyl)-1H-benzoimidazol-2-yl]-methyl]-benzamide]",26%,64%
"COc1cc(C)c(S(=O)(=O)N(C)C(C)c2nc3cccc(C(=O)N4CCC5(CC4)CCN(S(=O)(=O)c4ccc(F)c(C#N)c4)CC5)c3[nH]2)c(C)c1 (stereo not shown) [I_CC-58, N-[1-[7-[9-[(3-Cyano-4-fluoro-phenyl)sulfonyl]-3,9-diazaspiro[5.5]undecane-3-carbonyl]-1H-benzoimidazol-2-yl]-ethyl]-4-methoxy-N,2,6-trimethyl-benzenesulfonic acid amide]",18%,101%
"COc1cc(C)c(S(=O)(=O)N(C)CCc2nc3c(C(=O)N4CCC5(CC4)CCN(c4ccncc4)CC5)cccc3[nH]2)c(C)c1 [I_02, 4-methoxy-N,2,6-trimethyl-N-[2-[4-(9-pyridin-4-yl-3,9-diazaspiro[5.5]undecane-3-carbonyl)-1H-benzoimidazol-2-yl]-ethyl]-benzenesulfonic acid amide]",97%,100%
"COc1cc(C)c(S(=O)(=O)N(C)C(C)c2nc3cccc(C(=O)N4CCC5(CCN(Cc6c[nH]cn6)CC5)CC4)c3[nH]2)c(C)c1 (stereo not shown) [I_CC-25, N-[1-[7-[9-(1H-Imidazol-4-yl-methyl)-3,9-diazaspiro[5.5]undecane-3-carbonyl]-1H-benzoimidazol-2-yl]-ethyl]-4-methoxy-N,2,6-trimethyl-benzenesulfonic acid amide]",58%,103%
"COc1cc(C)c(S(=O)(=O)N(C)C(C)c2nc3cccc(C(=O)N4CCC5(CCN(Cc6c(F)cccc6OC)CC5)CC4)c3[nH]2)c(C)c1 (stereo not shown) [I_CC-34, N-[1-[7-[9-[(2-Fluoro-6-methoxy-phenyl)-methyl]-3,9-diazaspiro[5.5]undecane-3-carbonyl]-1H-benzoimidazol-2-yl]-ethyl]-4-methoxy-N,2,6-trimethyl-benzenesulfonic acid amide]",91%,86%
"COc1cc(C)c(S(=O)(=O)N(C)C(C)c2nc3cccc(C(=O)N4CCC5(CCN(Cc6c[nH]c(C)n6)CC5)CC4)c3[nH]2)c(C)c1 (stereo not shown) [I_CC-37, 4-Methoxy-N,2,6-trimethyl-N-[1-[7-[9-[(2-methyl-1H-imidazol-4-yl)-methyl]-3,9-diazaspiro[5.5]undecane-3-carbonyl]-1H-benzoimidazol-2-yl]-ethyl]-benzenesulfonic acid amide]",80%,101%
"COc1cc(C)c(S(=O)(=O)N(C)C(C)c2nc3cccc(C(=O)N4CCC5(CCN(Cc6ccccc6C#N)CC5)CC4)c3[nH]2)c(C)c1 (stereo not shown) [I_CC-45, N-[1-[7-[9-[(2-Cyano-phenyl)-methyl]-3,9-diazaspiro[5.5]undecane-3-carbonyl]-1H-benzoimidazol-2-yl]-ethyl]-4-methoxy-N,2,6-trimethyl-benzenesulfonic acid amide]",81%,98%
"COc1cc(C)c(S(=O)(=O)N(C)Cc2nc3c(C(=O)N4CCC5(CC4)CCN(c4ccncc4)C5)cccc3s2)c(C)c1 [I_CC-20, 4-methoxy-N,2,6-trimethyl-N-[[4-(3-pyridin-4-yl-3,8-diazaspiro[4.5]decane-8-carbonyl)-benzothiazol-2-yl]-methyl]-benzenesulfonic acid amide]",93%,100%
"Cc1cccc(Cl)c1S(=O)(=O)N(C)Cc1nc2cccc(C(=O)N3CCC4(CC3)CCN(c3ccncc3)CC4)c2[nH]1 [I_CC-11, 2-chloro-N,6-dimethyl-N-[[7-(3-pyridin-4-yl-3,9-diazaspiro[5.5]undecane-9-carbonyl)-1H-benzoimidazol-2-yl]-methyl]-benzenesulfonic acid amide]",98%,91%

# Now from value to molecule:
inhibition at 10 µM [1],inhibition at 10 µM [2],Compound
85%,97%,"COc1cc(C)c(S(=O)(=O)N(C)C(C)c2nc3cccc(C(=O)N4CCC5(CCN(Cc6csnn6)CC5)CC4)c3[nH]2)c(C)c1 (stereo not shown) [I_CC-38, 4-Methoxy-N,2,6-trimethyl-N-[1-[7-[9-([1,2,3]thiadiazol-4-yl-methyl)-3,9-diazaspiro[5.5]undecane-3-carbonyl]-1H-benzoimidazol-2-yl]-ethyl]-benzenesulfonic acid amide]"
96%,85%,"COc1cc(C)c(S(=O)(=O)N(C)C(C)c2nc3cccc(C(=O)N4CCC5(CCN(Cc6cccnc6)CC5)CC4)c3[nH]2)c(C)c1 (stereo not shown) [I_CC-28, 4-Methoxy-N,2,6-trimethyl-N-[1-[7-[9-(pyridin-3-yl-methyl)-3,9-diazaspiro[5.5]undecane-3-carbonyl]-1H-benzoimidazol-2-yl]-ethyl]-benzenesulfonic acid amide]"
82%,100%,"COc1cc(C)c(S(=O)(=O)N(C)C(C)c2nc3cccc(C(=O)N4CCC5(CCN(Cc6cncn6C)CC5)CC4)c3[nH]2)c(C)c1 (stereo not shown) [I_CC-36, 4-Methoxy-N,2,6-trimethyl-N-[1-[7-[9-[(3-methyl-3H-imidazol-4-yl)-methyl]-3,9-diazaspiro[5.5]undecane-3-carbonyl]-1H-benzoimidazol-2-yl]-ethyl]-benzenesulfonic acid amide]"
95%,93%,"COc1cc(C)c(S(=O)(=O)N(C)Cc2nc3c(C(=O)N4CCC5(CC4)CCN(c4ccncc4)CC5)cccc3s2)c(C)c1 [I_CC-22, 4-methoxy-N,2,6-trimethyl-N-[[4-(3-pyridin-4-yl-3,9-diazaspiro[5.5]undecane-9-carbonyl)-benzothiazol-2-yl]-methyl]-benzenesulfonic acid amide]"
100%,104%,"COc1cc(C)c(S(=O)(=O)N(C)Cc2nc3cccc(C(=O)N4CCC5(CCN(c6ccncc6)C5)C4)c3[nH]2)c(C)c1 (stereo not shown) [I_10, 4-methoxy-N,2,6-trimethyl-N-[[7-(8-pyridin-4-yl-3,8-diazaspiro[4.4]nonane-3-carbonyl)-1H-benzoimidazol-2-yl]-methyl]-benzenesulfonic acid amide]"
